{"source": "patent US20060194814A1", "about": "“Benzamide compounds” (priority 2003, published 2006)", "key": {"[1]": {"tested_on": "Y1 cells", "assay": "dbcAMP and mevalonate-supported 20á-hydroxyprogesterone formation in Y1 cells", "format": "cell-based, mouse", "parameters": "dose or concentration left out as unconfirmed", "details": "procaine", "method": "(§1) Culture media were then changed and cells were stimulated with 1 mM dbcAMP and the treatment for 24 to 48 hours. […] The synthesis of 20 —OH progesterone and progesterone in Y1 and MA-10 cell media respectively were measured by RIA (Brown et al., 1992). H295R human adrenal tumor cells were seeded in 48-well plates at 10^5 cells/well and incubated for 24 hours. […] At the end of the incubation time period, cells were treated with 1 mM dbcAMP for 48 hours. Cortisol levels in the media were determined by radioimmunoassay as previously described (Amri et al., 1996)."}, "[2]": {"tested_on": "H295R human adrenal tumor cells", "assay": "dbcAMP-induced cortisol synthesis in H295R cells", "format": "cell-based", "method": "as §1"}, "[3]": {"tested_on": "Y1 mouse adrenal tumor cells", "assay": "dbcAMP-induced 20á-hydroxyprogesterone synthesis in Y1 cells", "format": "cell-based", "details": "Y1 cells", "method": "as §1"}, "[4]": {"tested_on": "HMG-CoA reductase mRNA", "assay": "HMG-CoA reductase mRNA expression by Q-PCR in UT-1 cells", "format": "cell-based, Chinese hamster", "method": "(§2) After treatment, cells were stimulated with 1 mM dbcAMP for 24 hours. At the end of the incubation, total cell RNA was extracted using RNA STAT-60 (Tel-Test Inc, Friendswood, Tex.) according to the manufacturer's instructions. HMG-CoA reductase mRNA was quantified by Q-PCR using the ABI Prism 7700 sequence detection system (Perkin-Elmer/Applied Biosystems, Foster City, Calif.). RT reaction was performed using TaqMan® Reverse Transcription Reagents with 1 g total RNA and random hexamers as primers for each reaction according to the manufacturer's instructions. For quantifying mouse HMG-CoA reductase mRNA with Q-PCR, the primers were designed according to GenBank Accession Number BC 019782 using PE/AB Primer Express software, which is specifically designed for the selection of primers and probes. The forward primer was 5′-[…]-3′ (22 nucleotides; SEQ ID NO:1) and reverse primer was 5′-[…]-3′ (23 nucleotides; SEQ ID NO:2), respectively. The primers were synthesized by Bio-Synthesis Inc. (Lewisville, Tex.). Reactions were performed in a reaction mixture consisting of a 20 l volume solution containing 10 l SYBR® Green PCR Master Mix and 1 l primers mix (5 M each) with 2 l cDNA."}, "[5]": {"tested_on": "HMG-CoA reductase mRNA", "assay": "HMG-CoA reductase mRNA expression by Q-PCR in Y1 cells", "format": "cell-based, mouse", "method": "as §2"}, "[6]": {"target": "T1, peripheral-type benzodiazepine receptor (PBR) (Mus musculus, UniProt P50637)", "T1 construct": "endogenous in cells; Y1 inferred from context", "assay": "PBR radioligand binding ([3H]PK 11195) in procaine-treated cells", "details": "1 μM procaine, 48 hour treatment; radioligand [3H]PK 11195", "method": "Radioligand binding assays were performed as previously described (Papadopoulos et al., 1990, J. Biol. Chem. 265, 3772-3779). In brief, cells were scrapped from culture flasks into PBS, dispersed by trituration, and centrifuged at 1200×g for 5 min. The cells were resuspended in PBS to a final concentration of 10-50 μg protein/100 μl. Saturation binding studies were performed in a final volume of 300 μl in the presence of the radioligand [^3H]PK 11195 (specific activity 83.5 Ci/mmol; NEN Life Science Products) at the indicated concentrations. Nonspecific binding was determined in the presence of 6 μM of the homologous non-radioactive ligand. After 180 min incubation at 4° C., the assays were stopped by filtration through Whatman GF/C filters (Clifton, N.J.) and washed with 10 ml PBS. Bound radioactivity was determined by liquid scintillation counting. Bound [^3H]PK 11195 and [^3H]cholesterol were quantified by liquid scintillation spectrometry. Dissociation constants (Kd), the number of binding sites (Bmax) and Hill coefficients (nH) for PK 11195 and cholesterol were determined by Curve-Fit (Prism version 3.0, GraphPad Software Inc., San Diego, Calif.)."}}, "note": "Structures can show the parent of a compound that is named as a salt.", "data": [{"molecule": "CCN(CC)CCOC(=O)c1ccc(N)cc1", "note": "[SP01, procaine HCl]", "values": [{"measurement": "effect on dbcAMP and mevalonate-supported 20á-hydroxyprogesterone formation", "setting": "[1]", "value": "did not inhibit"}, {"measurement": "effect on dbcAMP-stimulated cortisol production", "setting": "[2]", "value": "inhibited the dbcAMP-stimulated cortisol production in a dose-dependent manner"}, {"measurement": "effect on basal cortisol production", "setting": "[2]; basal", "value": "without effecting basal cortisol production"}, {"measurement": "effect on dbcAMP-induced 20á-hydroxyprogesterone production", "setting": "[3]", "value": "decreased in a dose-dependent manner"}, {"measurement": "lowest concentration inhibiting cAMP-induced steroid synthesis", "setting": "[3]", "value": 0.1, "unit": "µM"}, {"measurement": "inhibition of dbcAMP-stimulated steroid formation", "setting": "[3]; procaine at 1 M / 1 iM", "value": 90, "unit": "%"}, {"measurement": "effect on HMG-CoA reductase mRNA expression", "setting": "[4]", "value": "not significant"}, {"measurement": "effect on dbcAMP-induced HMG-CoA reductase mRNA levels", "setting": "[5]; pretreatment for 24 hours", "value": "reduced in a dose-dependent manner"}, {"measurement": "earliest treatment time inhibiting dbcAMP-induced HMG-CoA reductase mRNA expression", "setting": "[5]; time-course", "value": 6, "unit": "h"}, {"measurement": "Bmax of PBR ligand binding in procaine-treated cells", "setting": "[6]", "value": "29±4", "unit": "pmol/mg protein"}]}]}
